From US11708348B2, “Protease inhibitors for treatment of coronavirus infections” (The Scripps Research Institute, priority 2021, dated 2023)
Read-outs that look alike come from different tables or passages of the source.

Test system: SARS-CoV-2 strain USA-WA1/2020
Assay: microbe, parasite or virus in culture
Assay type: cell-based
Settings: Severe acute respiratory syndrome coronavirus 2, HeLa-ACE2, 24 h, HeLa-ACE2 cells, SARS-CoV-2 infection, 24 h, read-out: EC50, uM (Hela)

CC(C)C[C@H](NC(=O)c1csc(C(F)(F)F)n1)C(=O)N[C@@H](CC1CCNC1=O)C(=O)COC(F)(F)F (stereo partly drawn) [Compound 277, N-((2S)-4-methyl-1-oxo-1-(((2S)-3-oxo-1-(2-oxopyrrolidin-3-yl)-4-(trifluoromethoxy)butan-2-yl)amino)pentan-2-yl)-2-(trifluoromethyl)-thiazole-4-carboxamide]
EC50 (class symbols): < 0.05 µM

CC1(C)[C@@H]2[C@@H](C(=O)N[C@@H](C[C@@H]3CCNC3=O)C(=O)COC(F)(F)F)N(C(=O)c3cc(C(F)(F)F)on3)C[C@@H]21 [Compound 283, (1R,2S,5S)-6,6-dimethyl-N-((S)-3-oxo-1-((S)-2-oxopyrrolidin-3-yl)-4-(trifluoromethoxy)butan-2-yl)-3-(5-(trifluoromethyl)-isoxazole-3-carbonyl)-3-azabicyclo[3.1.0]-hexane-2-carboxamide]
EC50 (class symbols): < 0.05 µM

CC(C)(F)c1cc(C(=O)N2C[C@H]3[C@@H]([C@H]2C(=O)N[C@@H](C[C@@H]2CCNC2=O)C(=O)COc2c(F)c(F)cc(F)c2F)C3(C)C)no1 [Compound 284, (1R,2S,5S)-3-(5-(2-fluoropropan-2-yl)isoxazole-3-carbonyl)-6,6-dimethyl-N-((S)-3-oxo-1-((S)-2-oxopyrrolidin-3-yl)-4-(2,3,5,6-tetrafluorophenoxy)butan-2-yl)-3-azabicyclo-[3.1.0]hexane-2-carboxamide]
EC50 (class symbols): 0.2 to 0.5 µM

CC(C)(C)[C@H](NC(=O)[C@H]1CCCO1)C(=O)N1C[C@H]2[C@@H]([C@H]1C(=O)N[C@@H](C[C@@H]1CCNC1=O)C(=O)COC(F)(F)F)C2(C)C [Compound 290, (1R,2S,5S)-3-((S)-3,3-dimethyl-2-((R)-tetrahydrofuran-2-carboxamido)-butanoyl)-6,6-dimethyl-N-((S)-3-oxo-1-((S)-2-oxopyrrolidin-3-yl)-4-(trifluoromethoxy)butan-2-yl)-3-azabicyclo-[3.1.0]hexane-2-carboxamide]
EC50 (class symbols): 0.2 to 0.5 µM

CC1(C)[C@@H]2[C@@H](C(=O)N[C@@H](C[C@@H]3CCNC3=O)C(=O)COC(F)(F)F)N(C(=O)[C@H]3CCCO3)C[C@@H]21 [Compound 291, (1R,2S,5S)-6,6-dimethyl-N-((S)-3-oxo-1-((S)-2-oxopyrrolidin-3-yl)-4-(trifluoromethoxy)butan-2-yl)-3-((R)-tetrahydrofuran-2-carbonyl)-3-azabicyclo-[3.1.0]hexane-2-carboxamide]
EC50 (class symbols): 0.05 to 0.2 µM

C[C@@H]1CN(C(=O)C(=O)NC(C)(C)C(F)(F)F)C[C@H]1C(=O)N[C@@H](C[C@@H]1CCNC1=O)C(=O)COC(F)(F)F [Compound 293, (3S,4S)-4-methyl-N-((S)-3-oxo-1-((S)-2-oxopyrrolidin-3-yl)-4-(trifluoromethoxy)butan-2-yl)-1-(2-oxo-2-((1,1,1-trifluoro-2-methylpropan-2-yl)amino)acetyl)-pyrrolidine-3-carboxamide]
EC50 (bound printed in cell): > 1 µM

CC[C@H](NC(=O)C1CC2(CC2)CO1)C(=O)N[C@@H](C[C@@H]1CCNC1=O)C(=O)COC(F)(F)F (stereo partly drawn) [Compound 294, N-((S)-1-oxo-1-(((S)-3-oxo-1-((S)-2-oxopyrrolidin-3-yl)-4-(trifluoromethoxy)butan-2-yl)amino)butan-2-yl)-5-oxaspiro[2.4]heptane-6-carboxamide]
EC50 (class symbols): < 0.05 µM

O=C1NCC[C@H]1C[C@H](NC(=O)[C@@H]1[C@H]2CCC[C@H]2CN1C(=O)C1CC2(CC2)CO1)C(=O)COC(F)(F)F (stereo partly drawn) [Compound 295, (1S,3aR,6aS)-N-((S)-3-oxo-1-((S)-2-oxopyrrolidin-3-yl)-4-(trifluoromethoxy)butan-2-yl)-2-(5-oxaspiro[2.4]heptane-6-carbonyl)octahydro-cyclopenta[c]pyrrole-1-carboxamide]
EC50 (class symbols): 0.05 to 0.2 µM

O=C(N[C@@H](C[C@@H]1CCNC1=O)C(=O)COC(F)(F)F)C(CC1CCOCC1)NC(=O)[C@H]1CCCO1 (stereo partly drawn) [Compound 298, (2R)-N-(1-oxo-1-(((S)-3-oxo-1-((S)-2-oxopyrrolidin-3-yl)-4-(trifluoromethoxy)butan-2-yl)amino)-3-(tetrahydro-2H-pyran-4-yl)propan-2-yl)tetrahydrofuran-2-carboxamide]
EC50 (class symbols): 0.5 to 1 µM
